These results are taken from patent US8148391B2 (Cephalon, Inc., priority 2006, dated 2012).

For test [1], the target named is T1, baculovirus-expressed ALK (Homo sapiens, UniProt Q9UM73).
T1 construct: host or cells: baculovirus expression system
The test is described as follows: ALK Kinase Assay (ELISA-type, time-resolved fluorescence). Format: biochemical. As to conditions: 1 μM ATP (Km level), 30 ng/ml ALK, 37° C., 15 minutes; read-out: ALK Activity (ALK kinase inhibition, IC50 class). An outline of the steps:
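Substrate coating: phospholipase C-γ, 10 μg/mL in TBS. Kinase step: 30 ng/ml ALK, 15 min, 37° C. Detection and analysis: Eu-N1 PT66 antibody, with IC50 fitted as a sigmoidal variable-slope dose-response curve.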

In test [2] the target is T2, c-Met (cytoplasmic domain) (Homo sapiens, UniProt P08581).
T2 construct: 10 ng/mL c-Met (cytoplasmic domain, Invitrogen Corporation #PV3143); purchased Invitrogen Corporation PV3143
The test is described as follows: c-Met Kinase Assay (same methods as for ALK, with modifications). It counts as biochemical. As to conditions: 1 μM ATP (Km level), 10 ng/mL c-Met; read-out: cMet Activity (c-Met kinase inhibition, IC50 class). In a few lines:
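Wells were coated with 10 μg/mL phospholipase C-γ substrate in TBS, and reactions were started with 10 ng/mL c-Met cytoplasmic domain and run at 37° C for 15 minutes. Phosphorylated product was detected with Eu-N1-labeled PT66 antibody. IC50 values came from sigmoidal variable-slope fits of percent inhibition versus log compound concentration.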

Bounds are passed on as bounds.

T1 sequence (Q9UM73 19-1620): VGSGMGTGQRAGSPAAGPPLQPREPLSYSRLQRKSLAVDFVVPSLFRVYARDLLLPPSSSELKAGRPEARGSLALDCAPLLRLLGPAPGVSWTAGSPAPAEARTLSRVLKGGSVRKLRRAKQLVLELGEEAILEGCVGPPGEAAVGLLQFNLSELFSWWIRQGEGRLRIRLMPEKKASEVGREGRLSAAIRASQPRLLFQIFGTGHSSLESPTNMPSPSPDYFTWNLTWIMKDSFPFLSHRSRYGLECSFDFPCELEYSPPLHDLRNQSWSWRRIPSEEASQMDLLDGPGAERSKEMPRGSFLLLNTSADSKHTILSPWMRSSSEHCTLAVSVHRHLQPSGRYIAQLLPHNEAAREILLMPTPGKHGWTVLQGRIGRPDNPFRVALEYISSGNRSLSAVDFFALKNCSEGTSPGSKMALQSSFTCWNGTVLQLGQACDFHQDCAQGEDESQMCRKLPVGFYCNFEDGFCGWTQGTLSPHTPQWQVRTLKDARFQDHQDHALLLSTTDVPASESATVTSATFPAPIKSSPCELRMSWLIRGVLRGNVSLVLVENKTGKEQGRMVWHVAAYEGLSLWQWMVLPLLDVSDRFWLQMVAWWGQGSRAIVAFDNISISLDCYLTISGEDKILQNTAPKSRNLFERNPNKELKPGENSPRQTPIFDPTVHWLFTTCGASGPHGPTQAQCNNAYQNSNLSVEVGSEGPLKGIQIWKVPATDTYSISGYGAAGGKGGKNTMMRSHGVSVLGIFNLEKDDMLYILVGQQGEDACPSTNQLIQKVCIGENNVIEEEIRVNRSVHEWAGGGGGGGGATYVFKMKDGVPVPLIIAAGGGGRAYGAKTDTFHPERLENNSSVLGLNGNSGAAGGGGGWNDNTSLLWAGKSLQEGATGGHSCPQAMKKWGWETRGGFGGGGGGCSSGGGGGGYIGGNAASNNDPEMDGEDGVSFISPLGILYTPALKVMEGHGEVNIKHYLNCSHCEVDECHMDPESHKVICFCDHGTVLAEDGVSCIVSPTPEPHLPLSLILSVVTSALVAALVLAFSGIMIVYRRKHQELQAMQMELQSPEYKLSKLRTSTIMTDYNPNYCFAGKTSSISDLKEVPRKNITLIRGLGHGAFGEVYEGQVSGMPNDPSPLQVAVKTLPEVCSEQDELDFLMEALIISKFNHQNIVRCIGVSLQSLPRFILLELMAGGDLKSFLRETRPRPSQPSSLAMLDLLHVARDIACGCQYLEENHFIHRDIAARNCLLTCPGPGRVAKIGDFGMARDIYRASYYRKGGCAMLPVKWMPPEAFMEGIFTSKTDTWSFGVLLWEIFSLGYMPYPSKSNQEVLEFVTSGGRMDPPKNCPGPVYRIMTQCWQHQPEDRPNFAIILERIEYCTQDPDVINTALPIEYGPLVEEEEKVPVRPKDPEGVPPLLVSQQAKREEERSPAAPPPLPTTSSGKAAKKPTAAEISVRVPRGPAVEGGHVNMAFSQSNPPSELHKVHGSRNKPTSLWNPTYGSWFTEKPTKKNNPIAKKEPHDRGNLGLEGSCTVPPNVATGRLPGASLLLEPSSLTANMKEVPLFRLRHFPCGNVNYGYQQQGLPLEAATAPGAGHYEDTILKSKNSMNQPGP
T2 sequence (P08581 956-1390 limits assumed): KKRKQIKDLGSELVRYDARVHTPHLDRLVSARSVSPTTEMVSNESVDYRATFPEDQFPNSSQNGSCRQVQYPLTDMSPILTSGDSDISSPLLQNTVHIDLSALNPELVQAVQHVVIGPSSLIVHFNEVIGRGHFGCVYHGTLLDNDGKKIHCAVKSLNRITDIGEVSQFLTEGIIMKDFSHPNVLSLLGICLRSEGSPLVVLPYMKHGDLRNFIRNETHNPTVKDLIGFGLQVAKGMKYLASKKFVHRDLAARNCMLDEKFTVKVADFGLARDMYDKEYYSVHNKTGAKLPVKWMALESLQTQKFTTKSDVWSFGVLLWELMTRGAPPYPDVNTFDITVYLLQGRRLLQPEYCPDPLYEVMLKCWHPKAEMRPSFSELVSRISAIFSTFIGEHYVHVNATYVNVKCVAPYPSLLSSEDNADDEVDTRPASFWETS

Usually IC50 stands for the concentration that inhibits the measured activity by half. Regarding `COc1cc2c(cc1Nc1ncc(Cl)c(N[C@H]3[C@@H](C(N)=O)[C@@H]4C=C[C@H]3C4)n1)CCN(Cc1ncco1)CC2` [Example 1179, (1S,2S,3R,4R)-3-[5-Chloro-2-(8-methoxy-3-oxazol-2-ylmethyl-2,3,4,5-tetrahydro-1H-benzo[d]azepin-7-ylamino)-pyrimidin-4-ylamino]-bicyclo[2.2.1]hept-5-ene-2-carboxylic acid amide], the half-inhibitory concentration (IC50) in test [1] was less than 100 nM; in test [2], greater than 10000 nM.
As for `COc1cc2c(cc1Nc1ncc(Cl)c(Nc3ccc(N4CCOCC4)cc3OC)n1)CCN(Cc1ncco1)CC2` [Example 1180, 5-Chloro-N*4*-(2-methoxy-4-morpholin-4-yl-phenyl)-N*2*-(8-methoxy-3-oxazol-2-ylmethyl-2,3,4,5-tetrahydro-1H-benzo[d]azepin-7-yl)-pyrimidine-2,4-diamine], the IC50 in test [1] is less than 100 nM; in test [2] it was greater than 10000 nM.
Consider `COc1cc2c(cc1Nc1ncc(Cl)c(Nc3ccccc3S(=O)(=O)N3CCCC3)n1)CCN(CC(=O)N(C)C)CC2` [Example 1181, 2-(7-{5-Chloro-4-[2-(pyrrolidine-1-sulfonyl)-phenylamino]-pyrimidin-2-ylamino}-8-methoxy-1,2,4,5-tetrahydro-benzo[d]azepin-3-yl)-N,N-dimethyl-acetamide], for which the IC50 is less than 100 nM in test [1] and 1000 to 10000 nM in test [2].
In the same order, the values of `CNC(=O)c1ccc(Nc2nc(Nc3cc4c(cc3OC)CCN(Cc3ncco3)CC4)ncc2Cl)c(OC)c1` [Example 1182, 4-[5-Chloro-2-(8-methoxy-3-oxazol-2-ylmethyl-2,3,4,5-tetrahydro-1H-benzo[d]azepin-7-ylamino)-pyrimidin-4-ylamino]-3-methoxy-N-methyl-benzamide] are less than 100 nM and greater than 10000 nM.
As to `COc1cc2c(cc1Nc1ncc(Cl)c(Nc3ccccc3S(=O)(=O)N(C)C)n1)CCN(CCCN1CCOCC1)C(=O)C2` [Example 1183, 2-{5-Chloro-2-[8-methoxy-3-(3-morpholin-4-yl-propyl)-2-oxo-2,3,4,5-tetrahydro-1H-benzo[d]azepin-7-ylamino]-pyrimidin-4-ylamino}-N,N-dimethyl-benzenesulfonamide], the IC50 in test [1] was less than 100 nM; in test [2], greater than 10000 nM.
In the same order, the values of `COCCN(C)S(=O)(=O)c1ccccc1Nc1nc(Nc2cc3c(cc2OC)CCN(CC(=O)N(C)C)CC3)ncc1Cl` [Example 1184, 2-[7-(5-Chloro-4-{2-[(2-methoxy-ethyl)-methyl-sulfamoyl]-phenylamino}-pyrimidin-2-ylamino)-8-methoxy-1,2,4,5-tetrahydro-benzo[d]azepin-3-yl]-N,N-dimethyl-acetamide] are less than 100 nM and greater than 10000 nM.
In the same order, the values of `CNC(=O)c1cc(N(C)C)ccc1Nc1nc(Nc2cc3c(cc2OC)CCN(CC(=O)N(C)C)CC3)ncc1Cl` [Example 1185, 2-[5-Chloro-2-(3-dimethylcarbamoylmethyl-8-methoxy-2,3,4,5-tetrahydro-1H-benzo[d]azepin-7-ylamino)-pyrimidin-4-ylamino]-5-dimethylamino-N-methyl-benzamide] are less than 100 nM and greater than 10000 nM.
The matching figures for `COc1cc2c(cc1Nc1ncc(Cl)c(Nc3ccc[nH]c3=O)n1)CCN(CC(=O)N(C)C)CC2` [Example 1186, 2-{7-[5-Chloro-4-(2-oxo-1,2-dihydro-pyridin-3-ylamino)-pyrimidin-2-ylamino]-8-methoxy-1,2,4,5-tetrahydro-benzo[d]azepin-3-yl}-N,N-dimethyl-acetamide]: less than 100 nM and greater than 10000 nM.
`COc1cc2c(cc1Nc1ncc(Cl)c(Nc3ccc(N(C)C)cc3S(=O)(=O)C(C)C)n1)CCN(CC(=O)N(C)C)CC2` [Example 1187, 2-(7-{5-Chloro-4-[4-dimethylamino-2-(propane-2-sulfonyl)-phenylamino]-pyrimidin-2-ylamino}-8-methoxy-1,2,4,5-tetrahydro-benzo[d]azepin-3-yl)-N,N-dimethyl-acetamide]: the IC50 in test [1] was less than 100 nM; in test [2], greater than 10000 nM.
The matching figures for `COc1cc2c(cc1Nc1ncc(Cl)c(Nc3ccccc3S(=O)(=O)N3CCC(O)C3)n1)CCN(CC(=O)N(C)C)CC2` (stereo not drawn) [Example 1188, 2-(7-{5-Chloro-4-[2-(3-hydroxy-pyrrolidine-1-sulfonyl)-phenylamino]-pyrimidin-2-ylamino}-8-methoxy-1,2,4,5-tetrahydro-benzo[d]azepin-3-yl)-N,N-dimethyl-acetamide]: less than 100 nM and 1000 to 10000 nM.
In the same order, the values of `COCCOc1ccc(Nc2nc(Nc3cc4c(cc3OC)CCN(CC(=O)N(C)C)CC4)ncc2Cl)c(S(=O)(=O)C(C)C)c1` [Example 1189, 2-(7-{5-Chloro-4-[4-(2-methoxy-ethoxy)-2-(propane-2-sulfonyl)-phenylamino]-pyrimidin-2-ylamino}-8-methoxy-1,2,4,5-tetrahydro-benzo[d]azepin-3-yl)-N,N-dimethyl-acetamide] are less than 100 nM and greater than 10000 nM.
For the compound `COc1cc2c(cc1Nc1ncc(Cl)c(Nc3cccnc3OC)n1)CCN(CC(=O)N(C)C)CC2` [Example 1190, 2-{7-[5-Chloro-4-(2-methoxy-pyridin-3-ylamino)-pyrimidin-2-ylamino]-8-methoxy-1,2,4,5-tetrahydro-benzo[d]azepin-3-yl}-N,N-dimethyl-acetamide], the IC50 in test [1] is less than 100 nM; in test [2], greater than 10000 nM.
The matching figures for `COc1cc2c(cc1Nc1ncc(Cl)c(Nc3ccccc3S(=O)(=O)N3CCCC3)n1)CCN(Cc1ncco1)CC2` [Example 1191, 5-Chloro-N*2*-(8-methoxy-3-oxazol-2-ylmethyl-2,3,4,5-tetrahydro-1H-benzo[d]azepin-7-yl)-N*4*-[2-(pyrrolidine-1-sulfonyl)-phenyl]-pyrimidine-2,4-diamine]: less than 100 nM and 1000 to 10000 nM.
In the same order, the values of `COc1cc2c(cc1Nc1ncc(Cl)c(Nc3ccccc3S(=O)(=O)N(C)C)n1)CCN(C(=O)CN1CCOCC1)CC2` [Example 1192, 2-{5-Chloro-2-[8-methoxy-3-(2-morpholin-4-yl-acetyl)-2,3,4,5-tetrahydro-1H-benzo[d]azepin-7-ylamino]-pyrimidin-4-ylamino}-N,N-dimethyl-benzenesulfonamide] are less than 100 nM and 1000 to 10000 nM.
On to `COc1cc2c(cc1Nc1ncc(Cl)c(Nc3ccccc3S(=O)(=O)N3CCC(O)C3)n1)CCNC(=O)C2` (stereo not drawn) [Example 1193, 7-{5-Chloro-4-[2-(3-hydroxy-pyrrolidine-1-sulfonyl)-phenylamino]-pyrimidin-2-ylamino}-8-methoxy-1,3,4,5-tetrahydro-benzo[d]azepin-2-one], for which the IC50 is less than 100 nM in test [1] and 100 to 1000 nM in test [2].
The matching figures for `COc1cc2c(cc1Nc1ncc(Cl)c(Nc3ccccc3S(=O)(=O)N(C)C)n1)CCNC(=O)C2` [Example 1194, 2-[5-Chloro-2-(8-methoxy-2-oxo-2,3,4,5-tetrahydro-1H-benzo[d]azepin-7-ylamino)-pyrimidin-4-ylamino]-N,N-dimethyl-benzenesulfonamide]: less than 100 nM and 1000 to 10000 nM.
Take `COc1cc2c(cc1Nc1ncc(Cl)c(Nc3ccccc3S(=O)(=O)N(C)C)n1)CCN(CCN1CCOCC1)C(=O)C2` [Example 1195, 2-{5-Chloro-2-[8-methoxy-3-(2-morpholin-4-yl-ethyl)-2-oxo-2,3,4,5-tetrahydro-1H-benzo[d]azepin-7-ylamino]-pyrimidin-4-ylamino}-N,N-dimethyl-benzenesulfonamide]: the IC50 in test [1] was less than 100 nM; in test [2] it was 1000 to 10000 nM.
`CNC(=O)C1(Nc2nc(Nc3cc4c(cc3OC)CCN(CCOC)CC4)ncc2Cl)CC1` [Example 1196, 1-{5-Chloro-2-[8-methoxy-3-(2-methoxy-ethyl)-2,3,4,5-tetrahydro-1H-benzo[d]azepin-7-ylamino]-pyrimidin-4-ylamino}-cyclopropanecarboxylic acid methylamide]: the half-inhibitory concentration (IC50) was 1000 to 10000 nM in test [1] and greater than 10000 nM in test [2].
On to `COCCN1CCc2cc(Nc3ncc(Cl)c(NC4(C(=O)NCC#N)CC4)n3)c(OC)cc2CC1` [Example 1197, 1-{5-Chloro-2-[8-methoxy-3-(2-methoxy-ethyl)-2,3,4,5-tetrahydro-1H-benzo[d]azepin-7-ylamino]-pyrimidin-4-ylamino}-cyclopropanecarboxylic acid cyanomethyl-amide], for which the IC50 in test [1] is 1000 to 10000 nM; in test [2], greater than 10000 nM.
On to `CNC(=O)C1(Nc2nc(Nc3cc4c(cc3OC)CCN(CC(=O)N(C)C)CC4)ncc2Cl)CC1` [Example 1198, 1-[5-Chloro-2-(3-dimethylcarbamoylmethyl-8-methoxy-2,3,4,5-tetrahydro-1H-benzo[d]azepin-7-ylamino)-pyrimidin-4-ylamino]-cyclopropanecarboxylic acid methylamide], for which the IC50 in test [1] is less than 100 nM; in test [2] it was greater than 10000 nM.
In the same order, the values of `COc1cc2c(cc1Nc1ncc(Cl)c(NC3(C(=O)NCC#N)CC3)n1)CCN(CC(=O)N(C)C)CC2` [Example 1199, 1-[5-Chloro-2-(3-dimethylcarbamoylmethyl-8-methoxy-2,3,4,5-tetrahydro-1H-benzo[d]azepin-7-ylamino)-pyrimidin-4-ylamino]-cyclopropanecarboxylic acid cyanomethyl-amide] are 100 to 1000 nM and greater than 10000 nM.
